Data: patent US9204646B2, “Pyrazole tetrahydronaphthyl carboxamides” (BAYER CROPSCIENCE AG, priority 2012, dated 2015)

Tests used:
Pyrenophora teres = test: In vivo preventive test on Pyrenophora teres (net blotch on barley); conditions: dose of 500 ppm; preventive spray on barley plants; grading 14 days after contamination vs control plants
Protocol: Barley plants (“Plaisant” variety), sown in starter cups on a 50/50 peat soil-pozzolana substrate and grown at 22° C., are treated at the 1-leaf stage (10 cm height) by spraying with the active ingredient prepared as described above. Plants, used as controls, are treated with the mixture of acetone/tween/DMSO/water not containing the active material. After 24 hours, the plants are contaminated by spraying the leaves with an aqueous suspension of Pyrenophora teres spores (12 000 spores per ml). The spores are collected from a 12-day-old culture. The contaminated barley plants are incubated for 48 hours at 20° C. and at 100% relative humidity, and then for 12 days at 20° C. at 70-80% relative humidity. Grading (% of efficacy) is carried out 14 days after the contamination, in comparison with the control plants.

Sphaerotheca fuliginea = test: In vivo preventive test on Sphaerotheca fuliginea (powdery mildew on cucurbits); conditions: dose of 500 ppm; preventive spray on gherkin plants; grading 12 days after contamination vs control plants
Protocol: Gherkin plants (“Vert petit de Paris” variety), sown in starter cups on a 50/50 peat soil-pozzolana substrate and grown at 24° C., are treated at the Z11 cotyledon stage by spraying with the active ingredient prepared as described above. Plants, used as controls, are treated with the mixture of acetone/tween/DMSO/water not containing the active material. After 24 hours, the plants are contaminated by spraying the cotyledons with an aqueous suspension of Sphaerotheca fuliginea spores (100 000 spores per ml). The spores are collected from infected plants. The contaminated gherkin plants are incubated at about 20° C. and at 70-80% relative humidity. Grading (% of efficacy) is carried out 12 days after the contamination, in comparison with the control plants.

[1] = Measurement of log P values by HPLC on reversed phase columns (EEC directive 79/831 Annex V.A8); assay type: physicochemical; conditions: for logP: method [a]: LC-MS at pH 2.7, 0.1% formic acid in water / acetonitrile, linear gradient 10% to 95% acetonitrile, Table 1 active ingredients; for chromatographic logP: pH 2.7
Alternaria brassicae = test: In vivo preventive test on Alternaria brassicae (leaf spot on radish); conditions: dose of 500 ppm; preventive spray on radish plants; grading 6 days after contamination vs control plants
Protocol: Radish plants (“Pernod Clair” variety), sown in starter cups on a 50/50 peat soil-pozzolana substrate and grown at 17° C., are treated at the cotyledon stage by spraying with the active ingredient prepared as described above. Plants, used as controls, are treated with the mixture of acetone/tween/DMSO/water not containing the active material. After 24 hours, the plants are contaminated by spraying the cotyledons with an aqueous suspension of Alternaria brassicae spores (50 000 spores per ml). The spores are collected from a 15-day-old culture. The contaminated radish plants are incubated at 20° C. and at 100% relative humidity. Grading (% of efficacy) is carried out 6 days after the contamination, in comparison with the control plants.

Botrytis cinerea = test: In vivo preventive test on Botrytis cinerea (grey mould); conditions: dose of 500 ppm; preventive spray on gherkin plants; grading 4 to 5 days after contamination vs control plants
Protocol: Gherkin plants (“Vert petit de Paris” variety), sown in starter cups on a 50/50 peat soil-pozzolana substrate and grown at 24° C., are treated at the Z11 cotyledon stage by spraying with the active ingredient prepared as described above. Plants, used as controls, are treated with the mixture of acetone/tween/DMSO/water not containing the active material. After 24 hours, the plants are contaminated by spraying the cotyledons with an aqueous suspension of cryopreserved Botrytis cinerea spores (50 000 spores per ml). The spores are suspended in a nutrient solution composed of 10 g/L of PDB, 50 g/L of D-Fructose, 2 g/L of NH4NO3 and 1 g/L of KH2PO4. The contaminated gherkin plants are incubated at 17° C. and at 90% relative humidity. Grading (% of efficacy) is carried out 4 to 5 days after the contamination, in comparison with the control plants.

Puccinia recondita = test: In vivo preventive test on Puccinia recondita (brown rust on wheat); conditions: dose of 500 ppm; preventive spray on wheat plants; grading 12 days after contamination vs control plants
Protocol: Wheat plants (“Scipion” variety), sown in starter cups on a 50/50 peat soil-pozzolana substrate and grown at 22° C., are treated at the 1-leaf stage (10 cm height) by spraying with the active ingredient prepared as described above. Plants, used as controls, are treated with the mixture of acetone/tween/DMSO/water not containing the active material. After 24 hours, the plants are contaminated by spraying the leaves with an aqueous suspension of Puccinia recondita spores (100 000 spores per ml). […] The contaminated wheat plants are incubated for 24 hours at 20° C. and at 100% relative humidity, and then for 10 days at 20° C. and at 70-80% relative humidity. Grading (% of efficacy) is carried out 12 days after the contamination, in comparison with the control plants.

Septoria tritici = test: In vivo preventive test on Septoria tritici (leaf spot on wheat); conditions: dose of 500 ppm; preventive spray on wheat plants; grading 24 days after contamination vs control plants
Protocol: Wheat plants (“Scipion” variety), sown in starter cups on a 50/50 peat soil-pozzolana substrate and grown at 22° C., are treated at the 1-leaf stage (10 cm height) by spraying with the active ingredient prepared as described above. Plants, used as controls, are treated with the mixture of acetone/tween/DMSO/water not containing the active material. After 24 hours, the plants are contaminated by spraying the leaves with an aqueous suspension of cryopreserved Septoria tritici spores (500 000 spores per ml). The contaminated wheat plants are incubated for 72 hours at 18° C. and at 100% relative humidity, and then for 21 days at 90% relative humidity. Grading (% of efficacy) is carried out 24 days after the contamination, in comparison with the control plants.

Uromyces appendiculatus = test: In vivo preventive test on Uromyces appendiculatus (bean rust); conditions: dose of 500 ppm; preventive spray on bean plants; grading 11 days after contamination vs control plants
Protocol: Bean plants (“Saxa” variety), sown in starter cups on a 50/50 peat soil-pozzolana substrate and grown at 24° C., are treated at the 2-leaf stage (9 cm height) by spraying with the active ingredient prepared as described above. Plants, used as controls, are treated with the mixture of acetone/tween/DMSO/water not containing the active material. After 24 hours, the plants are contaminated by spraying the leaves with an aqueous suspension of Uromyces appendiculatus spores (150 000 spores per ml). […] The contaminated bean plants are incubated for 24 hours at 20° C. and at 100% relative humidity, and then for 10 days at 20° C. and at 70-80% relative humidity. Grading (% of efficacy) is carried out 11 days after the contamination, in comparison with the control plants.

[2] = test system: Fusarium nivale (var. majus); test: In vivo Fusarium nivale (var. majus)-test (wheat)/preventive; conditions: concentration of 500 ppm of active ingredient; preventive spray on wheat plants; evaluated 5 days after inoculation; 0% = untreated control, 100% = no disease
Protocol: • Solvent: 49 parts by weight of N,N-dimethylacetamide • Emulsifier: 1 part by weight of alkylaryl polyglycol ether To produce a suitable preparation of active compound, 1 part by weight of active compound or active compound combination is mixed with the stated amounts of solvent and emulsifier, and the concentrate is diluted with water to the desired concentration. To test for preventive activity, young plants are sprayed with the preparation of active compound or active compound combination at the stated rate of application. After the spray coating has been dried, the plants are slightly injured by using a sandblast and afterwards they are sprayed with a conidia suspension of Fusarium nivale (var. majus). The plants are placed in the greenhouse under a translucent incubation cabinet at a temperature of approximately 10° C. and a relative atmospheric humidity of approximately 100%.

Phakopsora pachyrhizi = test: In vivo Phakopsora test (soybeans)/preventive; conditions: concentration of 10 ppm of active ingredient; preventive spray on soybean plants; evaluated 7 days after inoculation; 0% = untreated control, 100% = no disease
Protocol: To produce a suitable preparation of active compound, 1 part by weight of active compound is mixed with the stated amounts of solvent and emulsifier, and the concentrate is diluted with water to the desired concentration. To test for preventive activity, young plants are sprayed with the preparation of active compound at the stated rate of application. After the spray coating has dried on, the plants are inoculated with an aqueous spore suspension of the causal agent of soybean rust (Phakopsora pachyrhizi) and stay for 24 h without light in an incubation cabinet at approximately 24° C. and a relative atmospheric humidity of 95%. The plants remain in the incubation cabinet at approximately 24° C. and a relative atmospheric humidity of approximately 80% and a day/night interval of 12 h.

Pyricularia oryzae = assay type: in vivo; conditions: dose of 500 ppm; preventive spray on rice plants; grading 6 days after contamination vs control plants

With `Cn1nc(C(F)F)c(C(=O)Nc2cccc3c2CCC(C)(C)C3)c1F` [Example 22] the Eff. % (Pyrenophora teres) was 70%, the Eff. % (Sphaerotheca fuliginea) was 100% and the logP [1] was 3.79[a]. For the same molecule, the Eff. % (Alternaria brassicae) was 80%, the Eff. % (Botrytis cinerea) was 99% and the Eff. % (Puccinia recondita) was 94%. For the same molecule, the Eff. % (Septoria tritici) was 83% and the Eff. % (Uromyces appendiculatus) was 100%.

For `Cn1nc(C(F)F)c(C(=O)Nc2cccc3c2CCCC3(C)C)c1Cl` [Example 2], the Eff. % [2] was 86%, the logP [1] was 3.89[a] and the Eff. % (Puccinia recondita) was 98%. For the same molecule, the Eff. % (Uromyces appendiculatus) was 100% and the Eff. % (Phakopsora pachyrhizi) was 96%.

`Cn1nc(C(F)F)c(C(=O)Nc2cccc3c2CCCC3(C)C)c1F` [Example 1, 5-fluoro-3-(difluoromethyl)-N-(5,5-dimethyl-5,6,7,8-tetrahydronaphthalen-1-yl)-1-methyl-1H-pyrazole-4-carboxamide] gave an Eff. % [2] of 92%, a chromatographic logP [1] of 3.67 and an Eff. % (Alternaria brassicae) of 93%. For the same molecule, the Eff. % (Puccinia recondita) was 100%, the Eff. % (Septoria tritici) was 88% and the Eff. % (Uromyces appendiculatus) was 100%.

Work on `Cn1nc(C(F)F)c(C(=O)Nc2cccc3c2CCC(C)(C)C3)c1Cl` [Example 25, 5-chloro-3-(difluoromethyl)-N-(6,6-dimethyl-5,6,7,8-tetrahydronaphthalen-1-yl)-1-methyl-1H-pyrazole-4-carboxamide] yielded a chromatographic logP [1] of 4.04, an Eff. % (Alternaria brassicae) of 70% and an Eff. % (Botrytis cinerea) of 97%. It also gave an Eff. % (Puccinia recondita) of 98%, an Eff. % (Septoria tritici) of 100% and an Eff. % (Uromyces appendiculatus) of 100%.

With `CC1c2cccc(NC(=O)c3c(C(F)F)nn(C)c3F)c2CCC1(C)C` (racemic) [Example 12] the Eff. % (Pyrenophora teres) was 81%, the Eff. % (Sphaerotheca fuliginea) was 100% and the logP [1] was 4.11[a]. It also gave an Eff. % (Pyricularia oryzae) of 71%, an Eff. % (Puccinia recondita) of 100% and an Eff. % (Uromyces appendiculatus) of 100%.

For `C=C1c2cccc(NC(=O)c3c(C(F)F)nn(C)c3F)c2CCC1(C)C` [Example 6], the Eff. % (Pyrenophora teres) was 80%, the Eff. % (Sphaerotheca fuliginea) was 70% and the logP [1] was 3.87[a]. The Eff. % (Alternaria brassicae) was 97%, the Eff. % (Botrytis cinerea) was 97% and the Eff. % (Puccinia recondita) was 89%. It also gave an Eff. % (Septoria tritici) of 75% and an Eff. % (Uromyces appendiculatus) of 97%.
